These results are taken from ChEMBL document CHEMBL1137827, “Spiroquinazolinones as novel, potent, and selective PDE7 inhibitors. Part 1” (Bioorg Med Chem Lett, 2004).

The IC50 is the concentration that inhibits the measured activity by half.

The target of experiment [1] is T1, cGMP-specific 3',5'-cyclic phosphodiesterase (Homo sapiens, UniProt O76074). Kind of experiment: In vitro inhibition of human Phosphodiesterase 5.
Experiment [2] addresses T2, Phosphodiesterase 1 (Homo sapiens, UniProt P54750+Q01064+Q14123). Kind of experiment: In vitro inhibition of human Phosphodiesterase 1 partially purified from THP-1 cells.
For experiment [3], the target named is T3, cGMP-inhibited 3',5'-cyclic phosphodiesterase 3A (Homo sapiens, UniProt Q14432). Kind of experiment: In vitro inhibition of human Phosphodiesterase 3A3 expressed in baculovirus infected Sf9 cells.
Experiment [4] addresses T4, 3',5'-cyclic-AMP phosphodiesterase 4D (Homo sapiens, UniProt Q08499). The experiment can be described thus: In vitro inhibition of human Phosphodiesterase 4D3 expressed in baculovirus infected Sf9 cells.
The target of experiment [5] is T5, High affinity 3',5'-cyclic-AMP phosphodiesterase 7A (Homo sapiens, UniProt Q13946). Kind of experiment: In vitro inhibition of human Phosphodiesterase 7A1 expressed in baculovirus infected Sf9 cells.
Experiment [6] deals with T3, cGMP-inhibited 3',5'-cyclic phosphodiesterase 3A. The experiment can be described thus: Inhibition of human Phosphodiesterase 3A3 expressed in baculovirus infected Sf9 cells.
For experiment [7], the target named is T4, 3',5'-cyclic-AMP phosphodiesterase 4D. Kind of experiment: Inhibition of human Phosphodiesterase 4D3 expressed in baculovirus infected Sf9 cells.
The target of experiment [8] is T5, High affinity 3',5'-cyclic-AMP phosphodiesterase 7A. The experiment can be described thus: Inhibition of human Phosphodiesterase 7A1 expressed in baculovirus infected Sf9 cells.
Experiment [9] addresses T2, Phosphodiesterase 1. Kind of experiment: Inhibition of human Phosphodiesterase 1 partially purified from THP-1 cells. Type of experiment: cell-free.
Experiment [10] has as its target T1, cGMP-specific 3',5'-cyclic phosphodiesterase. The experiment can be described thus: Inhibition of human Phosphodiesterase 5.

T5 sequence (Q13946 whole entry): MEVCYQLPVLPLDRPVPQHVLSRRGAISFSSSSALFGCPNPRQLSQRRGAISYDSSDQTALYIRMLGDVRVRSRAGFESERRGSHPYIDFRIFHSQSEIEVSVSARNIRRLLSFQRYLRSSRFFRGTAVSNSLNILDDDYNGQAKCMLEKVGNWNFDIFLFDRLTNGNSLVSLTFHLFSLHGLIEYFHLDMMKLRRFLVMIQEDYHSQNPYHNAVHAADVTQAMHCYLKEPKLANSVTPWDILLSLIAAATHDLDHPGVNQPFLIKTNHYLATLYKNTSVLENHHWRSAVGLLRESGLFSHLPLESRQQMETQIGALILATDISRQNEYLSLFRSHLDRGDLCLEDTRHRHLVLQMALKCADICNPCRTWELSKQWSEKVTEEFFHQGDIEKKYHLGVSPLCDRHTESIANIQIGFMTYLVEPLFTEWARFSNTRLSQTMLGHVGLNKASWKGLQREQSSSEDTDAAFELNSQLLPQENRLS
T4 sequence (Q08499 whole entry): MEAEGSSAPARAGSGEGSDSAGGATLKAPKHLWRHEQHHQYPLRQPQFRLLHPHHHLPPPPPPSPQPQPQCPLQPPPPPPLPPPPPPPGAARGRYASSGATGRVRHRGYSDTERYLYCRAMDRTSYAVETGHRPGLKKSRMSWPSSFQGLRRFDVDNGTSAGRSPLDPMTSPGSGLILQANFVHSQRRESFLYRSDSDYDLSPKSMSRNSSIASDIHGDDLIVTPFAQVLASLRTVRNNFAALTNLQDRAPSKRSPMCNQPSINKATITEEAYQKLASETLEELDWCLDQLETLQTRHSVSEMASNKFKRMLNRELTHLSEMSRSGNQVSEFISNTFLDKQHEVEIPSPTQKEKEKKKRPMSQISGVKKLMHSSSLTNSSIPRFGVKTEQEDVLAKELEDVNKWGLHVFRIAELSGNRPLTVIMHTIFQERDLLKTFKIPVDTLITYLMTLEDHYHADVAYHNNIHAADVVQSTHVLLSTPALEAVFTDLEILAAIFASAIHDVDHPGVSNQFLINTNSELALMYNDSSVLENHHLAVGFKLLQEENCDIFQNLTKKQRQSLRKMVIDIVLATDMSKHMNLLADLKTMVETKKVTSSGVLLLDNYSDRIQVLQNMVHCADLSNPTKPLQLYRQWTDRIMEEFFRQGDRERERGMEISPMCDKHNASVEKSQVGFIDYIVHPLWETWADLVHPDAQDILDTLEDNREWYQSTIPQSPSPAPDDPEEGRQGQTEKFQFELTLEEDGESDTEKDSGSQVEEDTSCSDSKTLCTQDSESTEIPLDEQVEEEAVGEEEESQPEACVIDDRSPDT
T3 sequence (Q14432 whole entry): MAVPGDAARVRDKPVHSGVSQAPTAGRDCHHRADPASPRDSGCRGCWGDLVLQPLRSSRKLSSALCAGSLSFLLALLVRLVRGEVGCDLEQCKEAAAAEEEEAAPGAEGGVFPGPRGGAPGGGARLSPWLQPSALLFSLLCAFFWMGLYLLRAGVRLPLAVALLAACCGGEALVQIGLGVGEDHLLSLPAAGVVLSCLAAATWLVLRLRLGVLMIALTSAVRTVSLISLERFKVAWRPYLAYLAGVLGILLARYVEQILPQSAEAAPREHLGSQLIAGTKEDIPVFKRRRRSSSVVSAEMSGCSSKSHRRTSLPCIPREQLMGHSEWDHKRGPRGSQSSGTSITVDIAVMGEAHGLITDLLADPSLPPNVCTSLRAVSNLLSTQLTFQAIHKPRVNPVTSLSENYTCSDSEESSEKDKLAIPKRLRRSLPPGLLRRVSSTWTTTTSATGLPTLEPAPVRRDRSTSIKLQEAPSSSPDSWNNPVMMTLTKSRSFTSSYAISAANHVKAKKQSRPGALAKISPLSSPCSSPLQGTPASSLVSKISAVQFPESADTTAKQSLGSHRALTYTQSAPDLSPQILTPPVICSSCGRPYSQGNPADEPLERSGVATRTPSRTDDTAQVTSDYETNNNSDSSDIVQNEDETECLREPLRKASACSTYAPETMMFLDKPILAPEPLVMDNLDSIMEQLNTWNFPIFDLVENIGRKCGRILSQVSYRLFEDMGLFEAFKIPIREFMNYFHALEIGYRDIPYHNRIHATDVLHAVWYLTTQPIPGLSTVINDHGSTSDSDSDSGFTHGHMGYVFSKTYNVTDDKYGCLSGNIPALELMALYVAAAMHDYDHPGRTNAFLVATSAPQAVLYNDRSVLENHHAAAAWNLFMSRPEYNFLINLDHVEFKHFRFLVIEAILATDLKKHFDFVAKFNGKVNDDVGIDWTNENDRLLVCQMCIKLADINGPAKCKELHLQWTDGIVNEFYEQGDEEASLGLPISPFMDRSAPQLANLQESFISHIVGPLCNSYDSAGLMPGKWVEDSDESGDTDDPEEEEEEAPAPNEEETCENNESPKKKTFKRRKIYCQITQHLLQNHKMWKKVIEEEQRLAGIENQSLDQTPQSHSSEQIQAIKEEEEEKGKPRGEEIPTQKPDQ

Regarding `CN(C)CCCNC(=O)c1cccc(-c2cc(Cl)c3c(c2)C2(CCCCC2)NC(=O)N3)c1`, the IC50 in experiment [1] is over 84.9 µM; at Phosphodiesterase 1 [2], 5.16 µM; in experiment [3], 78.1 µM; in [4] it was 1.46 µM; in [5], 0.01 µM.
As for `O=C1Nc2c(Cl)cc(-c3ccccc3)cc2C2(CCCCC2)N1`, the IC50 in experiment [6] is over 101 µM; in [7] it was 1.42 µM; in experiment [8], 0.01 µM; against Phosphodiesterase 1 [9], 3.26 µM; in experiment [10] it was 69.8 µM.
As to `CN1CCN(C(=O)c2ccc(-c3cc(Cl)c4c(c3)C3(CCCCC3)NC(=O)N4)cc2)CC1`, the IC50 against Phosphodiesterase 1 [2] came to 7.01 µM; in experiment [10], 29.3 µM; in experiment [3], 29.3 µM; in experiment [4], 1.7 µM; in experiment [5] it was 0.01 µM.
In experiment [8], `O=C1Nc2ccc(Cl)cc2C2(CCCCC2)N1` gave an IC50 of 4.8 µM.
For the molecule `Cc1cccc2c1NC(=O)NC21CCCCC1`, half-maximal inhibition in experiment [8] (IC50) required 0.79 µM.
Regarding `CCC1(CC)NC(=O)Nc2c(Br)cccc21`, half-maximal inhibition in [8] (IC50) required 6.54 µM.
`O=C1Nc2cc(Cl)c(Cl)cc2C2(CCCCC2)N1` came in with an IC50 in experiment [8] of 3.7 µM.
On to `O=C1Nc2c(I)cccc2C2(CCCCC2)N1`, for which, in experiment [8], 6.85 µM corresponded to half-maximal inhibition (IC50). Against the preceding molecule, the IC50 is about 1.9-fold higher.
Take `O=C1Nc2ccc(-c3ccccc3)cc2C2(CCCCC2)N1`: the IC50 in experiment [8] came to 0.98 µM. This IC50 is about 7-fold lower than that of the molecule before.
In turn, `O=C1Nc2c(Cl)cc(Cl)cc2C2(CCCCC2)N1` showed an IC50 in experiment [8] of 0.12 µM.
`COc1ccc2c(c1)C1(CCCCC1)NC(=O)N2` displayed an IC50 in experiment [8] of 3.2 µM. This IC50 is about 27-fold higher than that of the molecule before.
Turning to `O=C1Nc2c(Br)cccc2C2(CCC2)N1`, the IC50 in experiment [8] is 1.4 µM.
Take `O=C1Nc2c(Cl)cc(-c3cccnc3)cc2C2(CCCCC2)N1`: the IC50 was found to be 19.3 µM in [1]; 2.86 µM on Phosphodiesterase 1 [2]; 14.8 µM in experiment [3]; 1.55 µM in experiment [4]; 0.05 µM in experiment [5].
With `COc1cc(Cl)c2c(c1)C1(CCCCC1)NC(=O)N2`, in [8], half-maximal inhibition (IC50) required 0.16 µM. In other words, the sub-micromolar range.
For `O=C1Nc2ccccc2C2(CCCCC2)N1`, in experiment [8], the IC50 was 6.6 µM.
The molecule `O=C1Nc2cc(Cl)ccc2C2(CCCCC2)N1` displayed an IC50 in [8] of 2.7 µM.
For the molecule `O=C1Nc2c(Cl)cc(-c3ccncc3)cc2C2(CCCCC2)N1`, the IC50 in experiment [1] came out at 9.47 µM; against Phosphodiesterase 1 [2], 3.01 µM; in experiment [3], 11.2 µM; in experiment [4] it was 1.01 µM; in experiment [5] it was 0.03 µM.
With `O=C1Nc2c(C(F)(F)F)cccc2C2(CCCCC2)N1`, the IC50 in experiment [8] turned out to be 2.96 µM.
Turning to `NC(=O)c1ccc(-c2cc(Cl)c3c(c2)C2(CCCCC2)NC(=O)N3)cc1`, the IC50 against Phosphodiesterase 1 [2] amounted to 1.28 µM; in [7], 0.69 µM; in [10], 11.6 µM; in experiment [3], 0.28 µM; in experiment [5] it was 0.02 µM.
Regarding `O=C1Nc2c(Cl)cc(-c3ccc(C(=O)O)cc3)cc2C2(CCCCC2)N1`, the IC50 came to 8.5 µM in [1]; 0.89 µM against Phosphodiesterase 1 [2]; 21.3 µM in [3]; 0.47 µM in [4]; 0.01 µM in [5].
With `O=C1Nc2c(Br)cccc2C2(CCCCC2)N1`, the IC50 in [8] is 0.06 µM. This lies in the double-digit nanomolar range.
On to `CN1CCN(C(=O)c2cccc(-c3cc(Cl)c4c(c3)C3(CCCCC3)NC(=O)N4)c2)CC1`, for which the IC50 in experiment [1] is 52.4 µM; at Phosphodiesterase 1 [2], 6.39 µM; in experiment [8], 0.04 µM; in experiment [3], 31.6 µM; in [4], 1.31 µM.
`CC1CCC2(CC1)NC(=O)Nc1c(Br)cccc12` (configuration not stated): 0.21 µM corresponded to half-maximal inhibition in experiment [8] (IC50).
Regarding `CN1CCN(C(=O)c2ccccc2-c2cc(Cl)c3c(c2)C2(CCCCC2)NC(=O)N3)CC1`, the IC50 in experiment [1] was over 101 µM; against Phosphodiesterase 1 [2], 20.1 µM; in [3] it was over 92 µM; in experiment [4], 15.7 µM; in experiment [5], 1.52 µM.
For the molecule `Cc1cc(Cl)c2c(c1)C1(CCCCC1)NC(=O)N2`, the IC50 in experiment [8] stood at 0.16 µM.
The molecule `CCCC1(CCC)NC(=O)Nc2c(Br)cccc21` showed an IC50 in [8] of 2.66 µM. Against the preceding molecule, the IC50 is about 17-fold higher.
In [8], `O=C1Nc2cccc(Cl)c2C2(CCCCC2)N1` registered an IC50 of 0.84 µM.
As for `O=C1Nc2c(Cl)cc(-c3ccccn3)cc2C2(CCCCC2)N1`, the IC50 was 68.4 µM in [1]; 8.3 µM at Phosphodiesterase 1 [2]; 45.1 µM in experiment [3]; 1.8 µM in experiment [4]; 0.03 µM in experiment [5].
`O=C1Nc2ccc(Cl)c(Cl)c2C2(CCCCC2)N1`: it took 0.6 µM to reach half-maximal inhibition in [8] (IC50).
Still for that read-out and setting: for `O=C1Nc2c(F)cccc2C2(CCCCC2)N1` the value was 0.39 µM.
With `CN(C)CCNC(=O)c1cccc(-c2cc(Cl)c3c(c2)C2(CCCCC2)NC(=O)N3)c1`, the IC50 in [1] is over 101 µM; against Phosphodiesterase 1 [2], 11.6 µM; in experiment [3], over 79.9 µM; in experiment [4], 1.59 µM; in experiment [5], 0.02 µM.
`COc1ccc2c(c1)NC(=O)NC21CCCCC1`: it took 9.5 µM to reach half-maximal inhibition in experiment [8] (IC50).
`CN(C)CCNC(=O)c1ccc(-c2cc(Cl)c3c(c2)C2(CCCCC2)NC(=O)N3)cc1`: the IC50 in [1] is over 67.3 µM; on Phosphodiesterase 1 [2], 6.29 µM; in [3], 42.2 µM; in [4], 1.63 µM; in experiment [5], 0.02 µM.
In [8], `O=C1Nc2c(Br)cccc2C2(CCCCCC2)N1` had an IC50 of 0.06 µM.
Take `O=C1Nc2c(Cl)cc(-c3cccc(C(=O)O)c3)cc2C2(CCCCC2)N1`: the IC50 in experiment [1] was 12.6 µM; at Phosphodiesterase 1 [2], 0.71 µM; in experiment [3], 16.7 µM; in experiment [4], 0.74 µM; in [5] it was 0.02 µM.
With `CN(C)CCCNC(=O)c1ccc(-c2cc(Cl)c3c(c2)C2(CCCCC2)NC(=O)N3)cc1`, the IC50 in experiment [1] was over 50.7 µM; on Phosphodiesterase 1 [2] it was 6.47 µM; in experiment [3], 44.5 µM; in experiment [4] it was 1.5 µM; in [5], 0.02 µM.
